According to patent US9238603B1, “Batch process for the preparation of cis-2,2,4,4-tetramethylcyclobutane-1,3-diol” (EASTMAN CHEMICAL COMPANY, priority 2014, dated 2016):

Assay: cis/trans solubility ratio of 2,2,4,4-tetramethylcyclobutane-1,3-diol in a solvent
Type: physicochemical
Method: The definition of cis/trans 2,2,4,4-tetramethylcyclobutane-1,3-diol solubility ratio is also known to one of ordinary skill in the art; in one embodiment, the cis/trans 2,2,4,4-tetramethylcyclobutane-1,3-diol solubility ratio can be defined as the ratio of the cis isomer solubility limit divided by the trans isomer solubility limit at a given temperature for a given solvent or solvents. For example, the cis/trans solubility ratio in water at 80° C. is about 1.0. For MIBC, the cis/trans solubility ratio at 80° C. is about 0.74.

For `CC1(C)C(O)C(C)(C)C1O` (centres unmarked) [2,2,4,4-tetramethylcyclobutane-1,3-diol], the “cis/trans solubility ratio (cis isomer solubility limit divided by trans isomer solubility limit)” value (in MIBC at 80° C.) was “about 0.74” and the “cis/trans solubility ratio (cis isomer solubility limit divided by trans isomer solubility limit)” value (in water at 80° C.) was “about 1.0”.
